Measurements taken from the supplement of paper PMC12370961.

What was measured:
Assay in all cases: differential drug sensitivity score (dDSS) relative to sarcoma reference cohort mean DSS (DSS units (0-100 scale difference)); higher = more selective sensitivity than reference sarcomas
Conditions in all cases: exposure time: 72 h; concentration range: 10-10000 nM
[1] = test system: CDS-ZH001 (patient-derived CIC-DUX4 sarcoma tumoroid)
Description: (§1)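 Drug response profiling of patient-derived Ewing sarcoma and CIC::DUX4 sarcoma tumoroid models (or cells tested directly after isolation from the tumor, 'direct'). The DSS is the normalised AUC (0-100); dDSS is the sample DSS minus the mean DSS of a 34-sarcoma reference cohort profiled in the same lab.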

[2] = test system: ES-ZH016 direct (Ewing sarcoma cells right after isolation)
Description: as §1

[3] = test system: ES-ZH004 (patient-derived Ewing sarcoma tumoroid)
Description: as §1

[4] = test system: CDS-ZH002 direct (CIC-DUX4 sarcoma cells right after isolation)
Description: as §1

[5] = test system: ES-ZH001 (patient-derived Ewing sarcoma tumoroid)
Description: as §1

[6] = test system: ES-ZH007 (patient-derived Ewing sarcoma tumoroid)
Description: as §1

[7] = test system: ES-ZH002 (patient-derived Ewing sarcoma tumoroid)
Description: as §1

[8] = test system: ES-ZH008 (patient-derived Ewing sarcoma tumoroid)
Description: as §1

[9] = test system: CDS-ZH002 (patient-derived CIC-DUX4 sarcoma tumoroid)
Description: as §1

[10] = test system: CDS-ZH001-2 (patient-derived CIC-DUX4 sarcoma tumoroid)
Description: as §1

[11] = test system: ES-ZH009 (patient-derived Ewing sarcoma tumoroid)
Description: as §1

[12] = test system: CDS-ZH003 (patient-derived CIC-DUX4 sarcoma tumoroid)
Description: as §1

[13] = test system: ES-ZH016 (patient-derived Ewing sarcoma tumoroid)
Description: as §1

Row | Structure (SMILES) | differential drug sensitivity score [1] | differential drug sensitivity score [2] | differential drug sensitivity score [3] | differential drug sensitivity score [4] | differential drug sensitivity score [5] | differential drug sensitivity score [6] | differential drug sensitivity score [7] | differential drug sensitivity score [8] | differential drug sensitivity score [9] | differential drug sensitivity score [10] | differential drug sensitivity score [11] | differential drug sensitivity score [12] | differential drug sensitivity score [13]
1 | CNC(=O)c1cc(Oc2ccc(NC(=O)Nc3ccc(Cl)c(C(F)(F)F)c3)c(F)c2)ccn1 [Regorafenib Monohydrate] | 1.3 | 1.8 | 5.5 | 1.5 | 11.6 | 0.4 | 13.6 | 8.9 | -3 | -2.3 | 5.8 | -3.4 | -1.1
2 | CCCN(CCC)C(=O)C1=Cc2ccc(-c3ccc(C(=O)N4CCCC4)cc3)cc2N=C(N)C1 [Motolimod] | -2 | 0.4 | -3.1 | 2.1 | 1.9 | -2.9 | 1.9 | 0.1 | -1.9 | 4.9 | -1.5 | -3.1 | 0.2
3 | Cc1ccc(C(=O)Nc2ccc(CN3CCN(C)CC3)c(C(F)(F)F)c2)cc1C#Cc1cnc2cccnn12 [Ponatinib] | -6.2 | 7.8 | 0.5 | -3.1 | 5.6 | -2.6 | 10 | 3.2 | -3.6 | -3.9 | 0.2 | -0.9 | -3.6
4 | CCN(CC)CCNC(=O)c1c(C)[nH]c(/C=C2\C(=O)Nc3ccc(F)cc32)c1C [Sunitinib] | 3.2 | 6.4 | 2.3 | -2 | 7.6 | 2.2 | 8.5 | -0.8 | -1.4 | 3.9 | 1.7 | -3.3 | 0.7
5 | COc1cc(OC)cc(N(CCNC(C)C)c2ccc3ncc(-c4cnn(C)c4)nc3c2)c1 [Erdafitinib] | -1.4 | 12.1 | 5 | -4.5 | -2.3 | -2.5 | 7.8 | 10.1 | -4 | -0.4 | -1.7 | -8 | -3.7
6 | CN(NC(=O)CC(=O)NN(C)C(=S)c1ccccc1)C(=S)c1ccccc1 [Elesclomol] | -6 | 7.7 | 40.9 | -6 | 0.9 | 28.6 | 18.6 | 6.3 | -4 | 2 | -0.7 | -5.7 | -6
7 | Cc1ccc2nc(NCCN)c3ncc(C)n3c2c1 | 3 | 0.5 | -2.3 | 2.2 | 1.4 | 1.4 | 3.8 | -1.3 | 1 | 4.2 | 1.8 | -1.9 | 3.7
8 | COc1nc(N)nc2c1ncn2[C@@H]1O[C@H](CO)[C@@H](O)[C@@H]1O [Nelarabine] | -2.5 | -2.5 | 1 | -2.5 | 3.2 | -1.6 | 8.4 | 5.2 | -2.5 | -2.5 | -2.5 | -2.5 | -2.5
9 | COc1cc2nccc(Oc3ccc(NC(=O)NC4CC4)c(Cl)c3)c2cc1C(N)=O [Lenvatinib] | -2.4 | -2.4 | 0.5 | -2.4 | 3.9 | -1.2 | 5.8 | 5 | -2.4 | -2.4 | -2.4 | -2.4 | -2.4
10 | CN(C)C/C=C/C(=O)Nc1cc2c(Nc3ccc(F)c(Cl)c3)ncnc2cc1O[C@H]1CCOC1 [Afatinib] | -4.6 | -2.4 | -0.3 | -4.7 | -3.9 | -4.2 | -2 | -1.4 | -4.9 | -3.4 | -3 | -4.9 | -4.6
11 | CCc1ccc(/C=C2/SC(=S)NC2=O)cc1 | 3.2 | 4 | -2.1 | -2.1 | -2.1 | -1.2 | 1.2 | -1.6 | 2.3 | 1 | 3.1 | -1.6 | 5.6
12 | C[C@@H]1CCN(C(=O)CC#N)C[C@@H]1N(C)c1ncnc2[nH]ccc12 [Tofacitinib] | -1.3 | -1.3 | 0.8 | 0.3 | 5.4 | -1 | 6.4 | 4.8 | -1.3 | -1.3 | -0.3 | -3.7 | -1.3
13 | CS(=O)(=O)OCCCCOS(C)(=O)=O [Busulfan] | -1.2 | 6.4 | 2.9 | -1.2 | 3.9 | -1.2 | 5.9 | -0.1 | -1.2 | -0.8 | -1.2 | -1.2 | -1.1
14 | C[C@]1(c2nc3c(C(N)=O)cccc3[nH]2)CCCN1 [Veliparib] | -1.3 | 5.6 | 5.1 | -1.3 | 4.9 | 1.4 | 8.8 | 5.8 | -1.3 | -1.2 | -1.3 | -0.6 | 1.2
15 | COc1cccc(-c2cc(F)ccc2[C@H]2Cc3nc(N)nc(C)c3C(=O)N2)n1 [HSP-990] | 1.4 | 4.9 | -0.8 | -4 | 3.8 | 1.2 | 8.8 | 7.1 | -9.2 | 0.3 | 6 | 1.3 | 3.4
16 | Cn1ncnc1[C@H]1c2n[nH]c(=O)c3cc(F)cc(c23)N[C@@H]1c1ccc(F)cc1 [Talazoparib] | -1.8 | 18.1 | 21.6 | -2.2 | 26.5 | 25.9 | 28.8 | 24.9 | -5.9 | 8.2 | 11.3 | 0.3 | 24.4
17 | CCc1c2c(nc3ccc(OC(=O)N4CCC(N5CCCCC5)CC4)cc13)-c1cc3c(c(=O)n1C2)COC(=O)[C@]3(O)CC [Irinotecan] | 1 | 15.8 | 23.1 | -5.3 | 19.6 | 14.3 | 23.1 | 31.1 | -4 | -0.6 | 9.1 | -9.5 | 17.9
18 | Cn1ncc(Cl)c1-c1cc(C(=O)N[C@H](CN)Cc2cccc(F)c2)sc1Cl [Afuresertib] | 2.8 | -3.4 | 4.1 | -5.5 | -4.1 | 2.4 | 5.8 | 4.6 | -4.7 | 0.3 | 3.6 | 1.1 | -0.3
19 | C[C@@H]1C[C@H]2[C@@H]3CCC4=CC(=O)C=C[C@]4(C)[C@@]3(F)[C@@H](O)C[C@]2(C)[C@@]1(O)C(=O)CO [Dexamethasone] | -0.5 | -0.5 | -0.5 | 0.6 | -0.5 | -0.5 | -0.5 | -0.5 | -0.5 | -0.5 | -0.5 | -0.5 | -0.5
20 | O=C(NOC[C@H](O)CO)c1ccc(F)c(F)c1Nc1ccc(I)cc1F [Mirdametinib] | -3 | -3 | -3 | -2.9 | -3 | -3 | -3 | -1.9 | -3 | -3 | -3 | -3 | -3
21 | CO[C@@H]1[C@H](N(C)C(=O)c2ccccc2)C[C@H]2O[C@]1(C)n1c3ccccc3c3c4c(c5c6ccccc6n2c5c31)C(=O)NC4 [Midostaurin] | -1.3 | 7.8 | -11 | 0.6 | 5.9 | -1.6 | 3.4 | 5.8 | -4.2 | 2.2 | 7.9 | -0.3 | 3.1
22 | CCN(c1cc(-c2ccc(CN3CCOCC3)cc2)cc(C(=O)NCc2c(C)cc(C)[nH]c2=O)c1C)C1CCOCC1 [Tazemetostat] | -0.8 | -1.1 | -1.1 | -1.1 | -1.1 | -1.1 | -1.1 | -1.1 | -0.9 | -1.1 | 1 | -7 | -0.7
23 | CNCc1ccc(-c2[nH]c3cc(F)cc4c3c2CCNC4=O)cc1 [Rucaparib] | -4 | 21 | 5.6 | -0.8 | 6.7 | 4.3 | 17.9 | 11.5 | -4 | 7.1 | 1.4 | -4.1 | 4.9
24 | FC(F)(F)c1ccc(CNc2ccc(Cc3c[nH]c4ncc(Cl)cc34)cn2)cn1 [Pexidartinib] | -1.5 | 3.5 | 0 | 5.7 | -1.5 | -1.5 | -1.3 | -0.7 | -1.5 | 0.5 | -0.8 | -1.3 | 0.7
25 | CCN(CC)Cc1ccc2cc(COC(=O)Nc3ccc(C(=O)NO)cc3)ccc2c1 [Givinostat] | -0.7 | 3.3 | 4.2 | 1.5 | 1.9 | 3.7 | 5.5 | 5.9 | -0.9 | 2.7 | 6.8 | -3.4 | 3.9
26 | Cn1ncc(Cl)c1-c1cc(C(=O)N[C@H](CN)Cc2ccc(F)c(F)c2)oc1Cl [Uprosertib] | 3.3 | -3.2 | 7.2 | -6 | -2.4 | 1 | 10.7 | 11.2 | -3.2 | 3.3 | 5.6 | -2.5 | 1
27 | CO[C@@H](C)Cn1c(=O)n(C)c2cnc3ccc(-c4cncc(C(C)(C)O)c4)cc3c21 [Samotolisib] | 2.3 | -2.7 | 2.3 | 4.5 | 1 | 2.6 | 12.2 | 10.9 | -8.8 | 0.9 | 7.1 | 0.5 | 6
28 | CC(C)(C)c1cc(NC(=O)Nc2ccc(-c3cn4c(n3)sc3cc(OCCN5CCOCC5)ccc34)cc2)no1 [Quizartinib] | -2.8 | 9.4 | -0.8 | 8.3 | -1.7 | 2.4 | 1.6 | 0.6 | -2.9 | 13.2 | 3.6 | -3.2 | -0.6
29 | Cc1nc(Nc2ncc(C(=O)Nc3c(C)cccc3Cl)s2)cc(N2CCN(CCO)CC2)n1 [Dasatinib] | -11.9 | 9.3 | -3.6 | 8.9 | -4.5 | -6.8 | 2.2 | -7.5 | -3.2 | -4.6 | -7 | -9.6 | -10.8
30 | CN(C)C/C=C/C(=O)Nc1ccc(C(=O)Nc2cccc(Nc3ncc(Cl)c(-c4c[nH]c5ccccc45)n3)c2)cc1 [THZ1] | 0 | 9 | 11.4 | 9.2 | 4.2 | 0.1 | 4.3 | 8.6 | 0.9 | 6.7 | 7.4 | -8.9 | 10.2
